The values that follow come from patent US7589092B2, “Prodrugs of heteroaryl compounds” (Koronis Pharmaceuticals, Incorporated, priority 2003, dated 2009).

Data set [1] relates to HIV. As to conditions: Bouchard et al.; cited from earlier work.
For data set [2] the following is noted: deamination product of 5-aza-dC; Momparler et al.; cited from earlier work.
A short description of data set [3]: Bioavailability / pharmacokinetic study in rats. In kind it is in vivo. To be noted: rat. The text has this: This study tested the bioavailability of different test compounds in rats, by oral gavage administration, at prescribed dose levels. The animals tested in this study were Rattus norvegicus, CD strain, from Charles River Canada (Montreal, Canada). Six males were included in each test group. Their weight ranged from 200 to 250 grams before fasting. […] Rats were individually housed in Nalgene rat cages with stainless steel covers. The animal room environment was controlled and monitored daily. The temperature ranged from 18 to 26° C. and the relative humidity ranged from 30%-70%. The photocycle was 12 hours light and 12 hours dark. All animals were submitted to a general physical examination and only those found healthy were admitted for the study. All selected animals were given two days to adjust to laboratory conditions before the study began. Teklad rodent Diet and water were constantly available to the rats throughout the acclimatization and study periods. Forty-eight hours prior to the initiation of the study, animals were randomly selected and two subsets of 3 male rats per group were formed. Due to the large volume of blood taken, collections will be done by alternating timepoints between subsets. All animals were fasted for twelve hours prior to the initiation of the study. […] Blood was collected from the orbital sinus of animals from each group at thirty minutes and at 1, 2, 4, and 12 hours after dosing. At each blood collection time point, three rats per group were bled. […] Oral and IV dosages of DHAdC, as well as oral dosages of prodrugs C7-DHAdC and C9-DHAdC were recorded. The rats were administered 100 mg/kg DHAdC or DHAdC equivalent in the case of prodrugs. The maximum concentration (Cmax), clearance (AUC∞), half-life (T1/2), and % Oral Bioavailability were recorded and are presented in Table 1: […]

Data set [4] in a line: Bioavailability / pharmacokinetic study in dogs. In kind it is in vivo, Canis familiaris. To be noted: dog. The source says: This study tested the bioavailability of different test compounds in dogs, by intravenous or oral gavage administration, at prescribed dose levels. The animals tested in this study were Canis familiaris, from Harlan Sprague Dawley (Indianapolis, Ind.). Four dogs (2 males and 2 females), with an average age of seven months, were included in each test group. The dogs were identified by ear tattoos, and given a fourteen day acclimatization period prior to the commencement of testing. Dogs were group housed but separated by sex. The animal room environment was controlled and monitored daily. The temperature ranged from 18 to 29° C. and the relative humidity ranged from 30%-70%. The photocycle was 12 hours light and 12 hours dark. All animals were submitted to a general physical examination and only those found healthy were admitted for the study. All selected animals were given two days to adjust to laboratory conditions before the study began. Teklad Dog Diet was fed twice daily and water was constantly available to the dogs throughout the acclimatization and study periods. Twenty-four hours prior to the initiation of the study, animals were randomly selected into two groups with 1 male and 1 female in each group. […] Blood was collected from the v. cephalica antebrachii of each of the two animals prior to study initiation, at thirty minutes and at 1, 2, 4, and 12 hours after dosing. […] IV dosages of DHAdC, as well as oral dosages of prodrugs […] C9-DHAdC were recorded. The dogs were administered 50 mg/kg DHAdC or DHAdC equivalent in the case of prodrugs. The maximum concentration (Cmax), clearance (AUC∞), half-life (T1/2), and % Oral Bioavailability were recorded and are presented in Table 2: […]

For data set [5] the following is noted: test concentration 100 um, RT, 60 minutes equilibration. As for the experimental part:
The compounds were first dissolved in a 60% methanol/40% water (v/v) solution containing 1% DMSO and brought to a concentration of 100 μM. The optimal detection wavelength was determined and calibration studies were performed with the solution. After calibration, the compounds were placed into n-octanol-PBS buffer at pH 7.4 at RT. The mixture was shaken and allowed to equilibrate for 60 minutes. The amount of compound in the PBS buffer phase was then determined by HPLC/UV-Vis. The amount of compound in n-octanol was determined by subtracting […]. This experiment was conducted for three samples. These three samples were then each corrected for volume and the results were averaged. Log D was calculated as the Log10 of the amount of compound in the n-octanol phase divided by the amount of compound in the buffer phase.
Lipophilicity is a major structural factor that influences the pharmacokinetic and pharmacodynamic behavior of compounds. In this assay, prodrugs C7-DHAdC, C8-DHAdC, and C9-DHAdC were partitioned between n-octanol and phosphate buffered saline (PBS).

Setting [6] is: oral gavage, 100 mg/kg DHAdC or DHAdC equivalent.
[7] abbreviates: oral gavage, 50 mg/kg DHAdC equivalent.
The mark [8] stands for this setting: male, CD, blood, IV, 100 mg/kg DHAdC.
Where [9] appears, read: male, CD, blood, oral gavage, 100 mg/kg DHAdC or DHAdC equivalent.
Where [10] appears, read: both sexes, blood, IV, 50 mg/kg DHAdC.

On to `Nc1ncn([C@H]2C[C@H](O)[C@@H](CO)O2)c(=O)n1` [Compound 5-aza-dC, 5-aza-2′-deoxycytidine], for which the “HIV replication in vitro” value in data set [1] is recorded as “inhibit HIV replication in vitro”.

As to `O=c1ncn([C@H]2C[C@H](O)[C@@H](CO)O2)c(=O)[nH]1` [Compound 5-aza-dU, 5-aza-2′-deoxyuridine], the antineoplastic activity entry in data set [2] is “loss of antineoplastic activity”.

As a reminder, the Cmax is the maximum level reached in the sampled fluid or tissue. On to `CCCCCCCOC(=O)NC1=NC(=O)N([C@H]2C[C@H](O)[C@@H](CO)O2)CN1` [Compound C7-DHAdC, N^4-Heptyloxycarbonyl-β-2′-deoxy-5,6-dihydro-5-azacytidine], for which, in data set [3] (setting [6]), the “AUC∞” value is recorded as 32,101 ng-hr/mL, the peak concentration (Cmax) is listed as 5,577 ng/mL, the Oral bioavailability was 43% and the T1/2 is 3.9 h. For the same compound, in data set [4] (setting [7]), the “AUC∞” value was 59,377 ng-hr/mL, the Cmax is reported as 11,282 ng/mL, the Oral bioavailability is 51% and the T1/2 was determined as 2.1 h. Further, in data set [5], the “log D n-Octanol PBS pH 7.4” value worked out at 2.04.

As for `CCCCCCCCOC(=O)NC1=NC(=O)N([C@H]2C[C@H](O)[C@@H](CO)O2)CN1` [Compound C8-DHAdC, N^4-Octyloxycarbonyl-β-2′-deoxy-5,6-dihydro-5-azacytidine], in data set [4] (setting [7]), the “AUC∞” value is 17,845 ng-hr/mL, the highest concentration (Cmax) is 5,172 ng/mL, the Oral bioavailability worked out at 11% and the T1/2 stood at 2.8 h. The “log D n-Octanol PBS pH 7.4” value in data set [5] was 2.56.

`CCCCCCCCCOC(=O)NC1=NC(=O)N([C@H]2C[C@H](O)[C@@H](CO)O2)CN1` [Compound C9-DHAdC, N^4-Nonyloxycarbonyl-β-2′-deoxy-5,6-dihydro-5-azacytidine]: in data set [3] (setting [6]), the “AUC∞” value was 26,472 ng-hr/mL, the Cmax is reported as 5,550 ng/mL, the Oral bioavailability is listed as 35% and the T1/2 came out at 3.6 h. Also, in data set [4] (setting [7]), the “AUC∞” value is 54,540 ng-hr/mL, the Cmax is recorded as 8,932 ng/mL, the Oral bioavailability stood at 36% and the T1/2 is 2.2 h. Further, in data set [5], the “log D n-Octanol PBS pH 7.4” value was 3.16.

Broadly, the AUC(0-inf) is total exposure, with the tail of the curve extrapolated. The half-life is the time needed for the level to fall by half in the phase considered. In general, bioavailability refers to dose-corrected exposure relative to a reference, in per cent. Turning to `NC1=NC(=O)N([C@H]2C[C@H](O)[C@@H](CO)O2)CN1` [DHAdC, 5,6-dihydro-5-aza-2′-deoxycytidine], the AUC(0-inf) in data set [3] (setting [8]) was 75000 ng·h/mL; in data set [3] (setting [9]), 8540 ng·h/mL; in data set [4] (setting [10]) it was 156000 ng·h/mL. Further, the results for the half-life in data set [3] (setting [8]), in data set [3] (setting [9]) and in data set [4] (setting [10]) were 1.8 h, 0.8 h and 2.1 h, respectively. Also, the Cmax in data set [3] (male, CD, blood, IV, 100 mg/kg DHAdC, read-out: Cmax) turned out to be 40000 ng/mL; in data set [3] (male, CD, blood, oral gavage, 100 mg/kg DHAdC or DHAdC equivalent, read-out: Cmax) it was 1860 ng/mL; in data set [4] (both sexes, blood, IV, 50 mg/kg DHAdC, read-out: Cmax), 76300 ng/mL. In addition, the bioavailability in data set [3] (setting [9]) came out at 11%.
